Measured values taken from paper PMC12115217, “3,3′-((3-Hydroxyphenyl)azanediyl)dipropionic Acid Derivatives as a Promising Scaffold Against Drug-Resistant Pathogens and Chemotherapy-Resistant Cancer” (Pathogens, 2025).
In brackets after ≈: the same amount, converted by molar mass. Entries after “also recorded” stand apart in the source; their conditions may differ. Structures can show the parent of a compound that is named as a salt.

How the values were obtained:
FaDu cells [1] = assay: Hydrogen peroxide production assay in FaDu cells; format: cell-based; settings: 6 h, 0.25% DMSO, versus untreated control
Method: FaDu cells were seeded on the 6-well plates and incubated with the compounds as described before. After incubation, cells were cooled down on ice, washed two times with ice-cold PBS, and scraped in PBS. Cells were centrifuged at 10,000× g for 10 min at 4 °C, the supernatant was discarded, and 650 µL of ice-cold PBS was added. Cells were sonicated and centrifuged at 10,000× g for 10 min at 4 °C to remove cell debris. The resulting supernatant was carefully collected for subsequent hydrogen peroxide analysis by using a commercial kit (Pierce™ Quantitative Peroxide Assay Kit (Aqueous), Catalog number 23280) (Invitrogen, ThermoFisher Scientific, Waltham, MA, USA).

FaDu cells [2] = assay: MTT dose-response IC50, FaDu cells; format: cell-based; settings: 0–100 µM, 24 h
Method: (§1) FaDu cells were obtained from the American Type Culture Collection (Rockville, MD, USA). HEK293 cells were kindly provided by Dr. Iliev lab at the Jill Roberts Institute for Inflammatory Bowel Disease, Weill Cornel Medicine of Cornel University (New York, NY, USA). All cells were cultivated in Dulbecco’s Modified Eagle Medium/Nutrient Mixture F-12 (DMEM/F-12) (Gibco, Waltham, MA, USA), 10% fetal bovine serum (FBS) (Gibco, Waltham, MA, USA), 100 U/mL penicillin, and 100 μg/mL streptomycin (P/S) (Gibco, Waltham, MA, USA). Culturing conditions were maintained at 37 °C in a humidified atmosphere containing 5% CO2. The culture medium was refreshed every 2–3 days, and cells were passaged upon reaching 70–80% confluence.
(§2) The in vitro inhibitory effects of the compounds were assessed by using the MTT assay. Briefly, cells were plated in 96-well plates at a density of 1 × 10⁴ cells per well. After the cells were allowed to adhere overnight at 37 °C in 5% CO₂, they were treated with compounds at a concentration of 100 µM in triplicate. Following a 20 h incubation, the MTT reagent was added, and the cells were further incubated for 4 h. The resulting formazan was solubilized in anhydrous DMSO, and absorbance was measured at 570 nm by using a microplate reader. Cell viability was calculated by using the following formula: ([AE − AB]/[AC − AB]) × 100%, where AE, AC, and AB represent the absorbance values of experimental samples, untreated controls, and blank wells, respectively. Data analysis was performed by using GraphPad Prism or QuickCalcs.
(§3) The data were fitted to a nonlinear regression model (GraphPad Prism version 9.0, GraphPad Software, San Diego, CA, USA) to calculate the IC50 values for each compound tested in triplicate.

HEK293 cells = assay: MTT dose-response IC50, HEK293 cells; format: cell-based; settings: non-cancerous HEK293 cells, 24 h
Method: as §1, §2, §3

FaDu cells [3] = assay: Superoxide dismutase (SOD) activity in FaDu cell lysate; format: cell-based; settings: 6 h, 0.25% DMSO, versus untreated control (DMSO)
Method: FaDu cells were seeded onto 6-well tissue culture plates at a density of 5 × 10^5 cells per well and incubated overnight to allow for cell attachment. Following the incubation period, the cells were treated with the selected compounds dissolved in tissue culture medium containing 0.25% DMSO and incubated for an additional 6 h. After the treatment, the medium was aspirated, and the cells were washed twice with phosphate-buffered saline (PBS) to remove residual compounds. The cells were then trypsinized for 10 min to detach them from the culture surface. Following trypsinization, the cells were collected by centrifugation, washed with ice-cold PBS to remove any residual trypsin, and resuspended in 0.5 mL of ice-cold PBS. The cell suspension was then subjected to sonication on ice for disruption. After sonication, the samples were centrifuged at 10,000× g for 10 min at 4 °C to remove cell debris. The resulting supernatant was carefully collected for the subsequent assessment of SOD activity. The activity of superoxide dismutase (SOD) was determined by using a commercial colorimetric assay kit (Superoxide Dismutase (SOD) Colorimetric Activity Kit, Catalog Number EIASODC) (Invitrogen, ThermoFisher Scientific, Waltham, MA, USA) following the manufacturer’s instructions.

S. aureus TCH 1516 [4] = assay: Broth microdilution MIC, S. aureus TCH 1516; format: cell-based; settings: Staphylococcus aureus, MRSA / USA300, mecA MRSA isolate, USA300 lineage; CAMHB, 18 ±; read-out: minimal inhibitory concentration (MIC) S. aureus TCH 1516
P. aeruginosa AR-1114 [5] = assay: Broth microdilution MIC, P. aeruginosa AR-1114; format: cell-based; settings: Pseudomonas aeruginosa, AR1114; IMP-15; CAMHB, 18 ± 2 h; read-out: minimal inhibitory concentration (MIC) P. aeruginosa AR-1114
K. pneumoniae AR-0003 [6] = assay: Broth microdilution MIC, K. pneumoniae AR-0003; format: cell-based; settings: Klebsiella pneumoniae, AR0003; KPC-3; CAMHB, 18 ± 2 h; read-out: minimal inhibitory concentration (MIC) K. pneumoniae AR-0003
A. baumannii AR-0273 = assay: Broth microdilution MIC, A. baumannii AR-0273; format: cell-based, Acinetobacter baumannii; settings: OXA-23, CAMHB; for MIC: Acinetobacter baumannii, AR0273, 18 ± 2 h, read-out: minimal inhibitory concentration (MIC) A. baumannii AR-0273
Description: (§4) The multidrug-resistant S. aureus strain TCH 1516 [USA 300-HOU-MR] was obtained from the American Type Culture Collection (ATCC, Manassas, VA, USA) (Table 1). E. faecalis AR-0671, multidrug-resistant E. coli AR-0001, K. pneumoniae AR-0003, P. aeruginosa AR-1114, and A. baumannii AR-0273 strains were acquired from the Centers for Disease Control and Prevention (CDC) AR isolate bank (Table 1). Prior to the initiation of this study, all microbial strains were stored in commercial cryopreservation systems at a temperature of −80 °C. The strains were cultivated on Columbia sheep blood agar (Becton Dickinson, Franklin Lakes, NJ, USA) or potato dextrose agar (PDA) for Candida (Becton Dickinson, Franklin Lakes, NJ, USA).
(§5) The antimicrobial activity of 3-((3-hydroxyphenyl)amino)propanoic acid derivatives was assessed by using the broth microdilution method, following the guidelines outlined by the Clinical Laboratory Standards Institute (CLSI), with modifications. In brief, the compounds were dissolved in dimethyl sulfoxide (DMSO) to attain a final concentration of 25–30 mg/mL. Vancomycin hydrochloride (MedChem express, Cat. No. HY-17362), cefazolin (MedChem express, Cat. No. HY-B1892), and meropenem (MedChem express, Cat. No. HY-13678) were used as control antimicrobial drugs and were dissolved in DMSO as described before. Dilution series were prepared in deep 96-well microplates to achieve a two-fold concentration range of 0.25, 0.5, 1, 2, 4, 8, 16, 32, and 64 µg/mL, utilizing cation-adjusted Mueller–Hinton broth (CAMHB) as the growth medium. The microplates containing the dilution series were then inoculated with fresh cultures of each tested organism to reach a final concentration of 5 × 10^4 CFU (colony-forming units) of the test organism in media containing 1% DMSO and 1× drug concentration, with a volume of 200 µL per well. Wells that were inoculated with medium containing 1% DMSO served as positive controls. Subsequently, the microplates were incubated at 35 ± 1 °C for 18 ± 2 h. Following the incubation period, the plates were examined by using a manual microplate viewer (Sensititre Manual Viewbox, ThermoFisher Scientific, Waltham, MA, USA). […] All experiments were conducted in duplicate with three technical replicates for each condition.

E. faecalis AR-0671 = assay: Broth microdilution MIC, E. faecalis AR-0671; format: cell-based, Enterococcus faecalis; settings: CAMHB; for MIC: Enterococcus faecalis, AR0671, 18 ± 2 h, read-out: minimal inhibitory concentration (MIC) E. faecalis AR-0671
Description: as §4, §5

E. coli AR-0001 [7] = assay: Broth microdilution MIC, E. coli AR-0001; format: cell-based; settings: Escherichia coli, AR0001; multidrug-resistant, KPC-3; CAMHB, 18 ± 2 h; read-out: minimal inhibitory concentration (MIC) E. coli AR-0001
S. aureus TCH 1516 [8] = assay: Broth microdilution MIC, S. aureus TCH 1516; format: cell-based, Staphylococcus aureus; settings: mecA MRSA isolate, USA300 lineage; CAMHB, 18 ± 2 h
Description: as §4, §5

FaDu cells [9] = assay: MTT cell viability at fixed 100 µM, FaDu cells; format: cell-based; settings: 24 h, described in words (Figure 2)
Method: Test compounds 2–25 were dissolved in hybridoma-grade dimethyl sulfoxide (Millipore, Sigma, Burlington, MA, USA) to prepare stock solutions at concentrations of 10–25 mg/mL. […] For in vitro anticancer activity screening, the compounds were thawed at room temperature, protected from light, and the aliquots were diluted in complete cell culture media to achieve a final concentration of 100 µM and used for the in vitro assays. The cytotoxicity assays were performed in triplicate.
as §1, §2

P. aeruginosa AR-1114 [10] = assay: Broth microdilution MIC, P. aeruginosa AR-1114; format: cell-based, Pseudomonas aeruginosa; settings: IMP-15; CAMHB
Description: as §4, §5

K. pneumoniae AR-0003 [11] = assay: Broth microdilution MIC, K. pneumoniae AR-0003; format: cell-based, Klebsiella pneumoniae; settings: KPC-3; CAMHB
Description: as §4, §5

E. coli AR-0001 [12] = assay: Broth microdilution MIC, E. coli AR-0001; format: cell-based, Escherichia coli; settings: multidrug-resistant, KPC-3; CAMHB
Description: as §4, §5

## N.N.[Cl][Pt][Cl] [CP, Cisplatin, reference compound]
FaDu cells [1]
  hydrogen peroxide levels (optical density at 525 nm): lower level of hydrogen peroxide production than the tested compounds
FaDu cells [2]
  IC50: 16.3 µM
HEK293 cells
  IC50: 15.9 µM

## O=C1CCN(c2cccc(O)c2)C(=O)N1 [Compound 5, 1-(3-Hydroxyphenyl)dihydropyrimidine-2,4(1H,3H)-dione]
FaDu cells [3]
  SOD activity (U/mL of cell lysate): significantly higher
FaDu cells [1]
  hydrogen peroxide levels (optical density at 525 nm): significantly higher
S. aureus TCH 1516 [4]
  MIC: 16 µg/mL (≈ 77.6 µM)
P. aeruginosa AR-1114 [5]
  MIC: > 64 µg/mL
K. pneumoniae AR-0003 [6]
  MIC: > 64 µg/mL
A. baumannii AR-0273
  MIC: > 64 µg/mL
FaDu cells [2]; Homo sapiens
  IC50: 9.9 µM
E. faecalis AR-0671
  MIC: 32 µg/mL (≈ 155 µM)
E. coli AR-0001 [7]
  MIC: > 64 µg/mL
HEK293 cells; Homo sapiens
  IC50: 41.8 µM

## O=C1CCN(c2cccc(O)c2)C(=S)N1 [Compound 6, 1-(3-Hydroxyphenyl)-2-thioxotetrahydropyrimidin-4(1H)-one]
FaDu cells [3]
  SOD activity (U/mL of cell lysate): significantly higher
FaDu cells [1]
  hydrogen peroxide levels (optical density at 525 nm): significantly higher
S. aureus TCH 1516 [8]
  minimal inhibitory concentration (MIC) S. aureus TCH 1516: 16 µg/mL (≈ 72 µM)
S. aureus TCH 1516 [4]
  MIC: 8 µg/mL (≈ 36 µM)
P. aeruginosa AR-1114 [5]
  MIC: > 64 µg/mL
K. pneumoniae AR-0003 [6]
  MIC: > 64 µg/mL
A. baumannii AR-0273
  MIC: > 64 µg/mL
FaDu cells [2]; Homo sapiens
  IC50: 13.4 µM
FaDu cells [9]
  post-treatment viability (MTT assay): most promising reduction in cell viability
E. faecalis AR-0671
  MIC: 32 µg/mL (≈ 144 µM)
E. coli AR-0001 [7]
  MIC: > 64 µg/mL
HEK293 cells; Homo sapiens
  IC50: 22.6 µM

## CC(C)=NNC(=O)CCN(CCC(=O)NN=C(C)C)c1cccc(O)c1 [Compound 19, 3,3′-((3-Hydroxyphenyl)azanediyl)bis(N′-(propan-2-ylidene)propanehydrazide)]
S. aureus TCH 1516 [8]
  minimal inhibitory concentration (MIC) S. aureus TCH 1516: >64 µg/mL
S. aureus TCH 1516 [4]
  MIC: > 64 µg/mL
P. aeruginosa AR-1114 [5]
  MIC: > 64 µg/mL
K. pneumoniae AR-0003 [6]
  MIC: > 64 µg/mL
A. baumannii AR-0273
  MIC: > 64 µg/mL
  minimal inhibitory concentration (MIC) A. baumannii AR-0273: >64 µg/mL
P. aeruginosa AR-1114 [10]
  minimal inhibitory concentration (MIC) P. aeruginosa AR-1114: >64 µg/mL
FaDu cells [9]
  post-treatment viability (MTT assay): lower activity compared with compound 22
K. pneumoniae AR-0003 [11]
  minimal inhibitory concentration (MIC) K. pneumoniae AR-0003: >64 µg/mL
E. coli AR-0001 [12]
  minimal inhibitory concentration (MIC) E. coli AR-0001: >64 µg/mL
E. faecalis AR-0671
  minimal inhibitory concentration (MIC) E. faecalis AR-0671: >64 µg/mL
  MIC: > 64 µg/mL
E. coli AR-0001 [7]
  MIC: > 64 µg/mL

## O=C(CCN(CCC(=O)N/N=C1\C(=O)Nc2ccccc21)c1cccc(O)c1)N/N=C1\C(=O)Nc2ccccc21 [Compound 25]
FaDu cells [3]
  SOD activity (U/mL of cell lysate): significantly higher; also recorded: highest SOD activity
FaDu cells [1]
  hydrogen peroxide levels (optical density at 525 nm): significantly higher
S. aureus TCH 1516 [4]
  MIC: 32 µg/mL (≈ 59.3 µM)
P. aeruginosa AR-1114 [5]
  MIC: > 64 µg/mL
K. pneumoniae AR-0003 [6]
  MIC: > 64 µg/mL
A. baumannii AR-0273
  MIC: > 64 µg/mL
FaDu cells [2]; Homo sapiens
  IC50: 5.28 µM
FaDu cells [9]
  post-treatment viability (MTT assay): most promising reduction in cell viability
E. faecalis AR-0671
  MIC: 16 µg/mL (≈ 29.7 µM)
E. coli AR-0001 [7]
  MIC: 64 µg/mL (≈ 119 µM)
HEK293 cells; Homo sapiens
  IC50: 11.7 µM

## COc1cccc2c1C(=O)c1c(O)c3c(c(O)c1C2=O)C[C@@](O)(C(=O)CO)C[C@@H]3O[C@H]1C[C@H](N)[C@H](O)[C@H](C)O1 [DOX, doxorubicin hydrochloride, reference compound]
FaDu cells [1]
  hydrogen peroxide levels (optical density at 525 nm): significant increase
FaDu cells [2]; Homo sapiens
  IC50: 1.81 µM
